± gives the uncertainty stated by the source.
Assay: xn = mol fraction of the nth substance listed

CCCCCCCCCCCCCC + CCCCCCC
101 kPa, x2 = 0.5
Details | viscosity [mPa·s]
298 K | 1.031 ± 0.027
318 K | 0.7754 ± 0.021

ClC(Cl)=C(Cl)Cl + CCCCCCC
303.15 K, 101 kPa
Details | viscosity [mPa·s]
x1 = 0.196 | 0.442 ± 0.01
x1 = 0.3642 | 0.497 ± 0.01
x1 = 0.4421 | 0.529 ± 0.01
x1 = 0.4713 | 0.543 ± 0.01
x1 = 0.5272 | 0.568 ± 0.009
x1 = 0.6106 | 0.61 ± 0.009
x1 = 0.6939 | 0.653 ± 0.009
x1 = 0.7237 | 0.668 ± 0.009
x1 = 0.8091 | 0.714 ± 0.008
x1 = 0.9254 | 0.775 ± 0.008

O=[N+]([O-])c1ccccc1 + CCCCCCC
101.3 kPa
Details | viscosity [mPa·s]
293.15 K, x1 = 0.149 | 0.482 ± 0.004
293.15 K, x1 = 0.2214 | 0.532 ± 0.004
293.15 K, x1 = 0.2746 | 0.58 ± 0.004
293.15 K, x1 = 0.3291 | 0.631 ± 0.005
293.15 K, x1 = 0.4214 | 0.759 ± 0.007
293.15 K, x1 = 0.4477 | 0.805 ± 0.007
293.15 K, x1 = 0.4729 | 0.845 ± 0.008
293.15 K, x1 = 0.4886 | 0.862 ± 0.008
293.15 K, x1 = 0.5628 | 0.937 ± 0.007
293.15 K, x1 = 0.6392 | 1.016 ± 0.008
293.15 K, x1 = 0.7954 | 1.313 ± 0.01
293.15 K, x1 = 0.8751 | 1.517 ± 0.01
293.16 K, x1 = 0.383 | 0.845 ± 0.009
293.57 K, x1 = 0.383 | 0.831 ± 0.008
294.17 K, x1 = 0.383 | 0.812 ± 0.007
295.09 K, x1 = 0.383 | 0.794 ± 0.006
295.15 K, x1 = 0.149 | 0.471 ± 0.004
295.15 K, x1 = 0.2214 | 0.517 ± 0.004
295.15 K, x1 = 0.2746 | 0.562 ± 0.004
295.15 K, x1 = 0.3291 | 0.611 ± 0.005
295.15 K, x1 = 0.4214 | 0.72 ± 0.006
295.15 K, x1 = 0.4477 | 0.759 ± 0.006
295.15 K, x1 = 0.4729 | 0.79 ± 0.006
295.15 K, x1 = 0.4886 | 0.808 ± 0.006
295.15 K, x1 = 0.5628 | 0.896 ± 0.007
295.15 K, x1 = 0.6392 | 0.984 ± 0.007
295.15 K, x1 = 0.7954 | 1.274 ± 0.009
295.15 K, x1 = 0.8751 | 1.475 ± 0.01
296.42 K, x1 = 0.383 | 0.768 ± 0.006
298.66 K, x1 = 0.383 | 0.736 ± 0.006
299.15 K, x1 = 0.149 | 0.451 ± 0.003
299.15 K, x1 = 0.2214 | 0.498 ± 0.004
299.15 K, x1 = 0.2746 | 0.539 ± 0.004
299.15 K, x1 = 0.3291 | 0.579 ± 0.004
299.15 K, x1 = 0.4214 | 0.67 ± 0.005
299.15 K, x1 = 0.4477 | 0.702 ± 0.005
299.15 K, x1 = 0.4729 | 0.73 ± 0.005
299.15 K, x1 = 0.4886 | 0.746 ± 0.006
299.15 K, x1 = 0.5628 | 0.836 ± 0.006
299.15 K, x1 = 0.6392 | 0.926 ± 0.006
299.15 K, x1 = 0.7954 | 1.201 ± 0.008
299.15 K, x1 = 0.8751 | 1.385 ± 0.009
305.15 K, x1 = 0.149 | 0.423 ± 0.003
305.15 K, x1 = 0.2214 | 0.463 ± 0.003
305.15 K, x1 = 0.2746 | 0.503 ± 0.004
305.15 K, x1 = 0.3291 | 0.536 ± 0.004
305.15 K, x1 = 0.4214 | 0.615 ± 0.004
305.15 K, x1 = 0.4477 | 0.643 ± 0.005
305.15 K, x1 = 0.4729 | 0.678 ± 0.005
305.15 K, x1 = 0.4886 | 0.681 ± 0.005
305.15 K, x1 = 0.5628 | 0.764 ± 0.005
305.15 K, x1 = 0.6392 | 0.85 ± 0.006
305.15 K, x1 = 0.7954 | 1.104 ± 0.007
305.15 K, x1 = 0.8751 | 1.26 ± 0.008
313.15 K, x1 = 0.149 | 0.391 ± 0.003
313.15 K, x1 = 0.2214 | 0.425 ± 0.003
313.15 K, x1 = 0.2746 | 0.459 ± 0.004
313.15 K, x1 = 0.3291 | 0.491 ± 0.004
313.15 K, x1 = 0.4214 | 0.558 ± 0.004
313.15 K, x1 = 0.4477 | 0.58 ± 0.004
313.15 K, x1 = 0.4729 | 0.602 ± 0.005
313.15 K, x1 = 0.4886 | 0.613 ± 0.004
313.15 K, x1 = 0.5628 | 0.689 ± 0.005
313.15 K, x1 = 0.6392 | 0.77 ± 0.005
313.15 K, x1 = 0.7954 | 0.984 ± 0.007
313.15 K, x1 = 0.8751 | 1.124 ± 0.008

c1ccccc1 + CCCCCCC
Details | viscosity [mPa·s]
294.15 K, 101 kPa, x1 = 0.6 | 0.4728 ± 0.013
295.15 K, 101 kPa, x1 = 0.3 | 0.427 ± 0.011
298 K, 101 kPa, x1 = 0.5 | 0.4167 ± 0.011
298 K, 101.33 kPa, x1 = 0.1007 | 0.3923 ± 0.015
298 K, 101.33 kPa, x1 = 0.1109 | 0.3913 ± 0.015
298 K, 101.33 kPa, x1 = 0.1922 | 0.4003 ± 0.016
298 K, 101.33 kPa, x1 = 0.276 | 0.4019 ± 0.016
298 K, 101.33 kPa, x1 = 0.2915 | 0.4023 ± 0.016
298 K, 101.33 kPa, x1 = 0.3953 | 0.4142 ± 0.016
298 K, 101.33 kPa, x1 = 0.4839 | 0.4157 ± 0.016
298 K, 101.33 kPa, x1 = 0.5204 | 0.4382 ± 0.017
298 K, 101.33 kPa, x1 = 0.6729 | 0.4487 ± 0.017
298 K, 101.33 kPa, x1 = 0.6893 | 0.5006 ± 0.05
298 K, 101.33 kPa, x1 = 0.6967 | 0.4544 ± 0.017
298 K, 101.33 kPa, x1 = 0.8532 | 0.5208 ± 0.019
298 K, 101.33 kPa, x1 = 0.9152 | 0.5442 ± 0.02
298.15 K, 101 kPa, x2 = 0.1025 | 0.53 ± 0.006
298.15 K, 101 kPa, x2 = 0.2002 | 0.491 ± 0.005
298.15 K, 101 kPa, x2 = 0.2919 | 0.46 ± 0.005
298.15 K, 101 kPa, x2 = 0.4003 | 0.429 ± 0.005
298.15 K, 101 kPa, x2 = 0.5192 | 0.41 ± 0.004
298.15 K, 101 kPa, x2 = 0.6209 | 0.401 ± 0.004
298.15 K, 101 kPa, x2 = 0.7084 | 0.392 ± 0.004
298.15 K, 101 kPa, x2 = 0.7893 | 0.388 ± 0.004
298.15 K, 101 kPa, x2 = 0.9165 | 0.386 ± 0.004
298.15 K, 101.33 kPa, x2 = 0.095 | 0.532 ± 0.004
298.15 K, 101.33 kPa, x2 = 0.1973 | 0.485 ± 0.004
298.15 K, 101.33 kPa, x2 = 0.2999 | 0.455 ± 0.004
298.15 K, 101.33 kPa, x2 = 0.3741 | 0.439 ± 0.004
298.15 K, 101.33 kPa, x2 = 0.3984 | 0.431 ± 0.003
298.15 K, 101.33 kPa, x2 = 0.4961 | 0.414 ± 0.003
298.15 K, 101.33 kPa, x2 = 0.5995 | 0.403 ± 0.003
298.15 K, 101.33 kPa, x2 = 0.6762 | 0.397 ± 0.003
298.15 K, 101.33 kPa, x2 = 0.7309 | 0.395 ± 0.003
298.15 K, 101.33 kPa, x2 = 0.7987 | 0.391 ± 0.004
298.15 K, 101.33 kPa, x2 = 0.8933 | 0.389 ± 0.004
308.15 K, 101 kPa, x2 = 0.1025 | 0.47 ± 0.005
308.15 K, 101 kPa, x2 = 0.2002 | 0.44 ± 0.005
308.15 K, 101 kPa, x2 = 0.2919 | 0.412 ± 0.005
308.15 K, 101 kPa, x2 = 0.4003 | 0.388 ± 0.004
308.15 K, 101 kPa, x2 = 0.5192 | 0.37 ± 0.004
308.15 K, 101 kPa, x2 = 0.6209 | 0.36 ± 0.004
308.15 K, 101 kPa, x2 = 0.7084 | 0.355 ± 0.004
308.15 K, 101 kPa, x2 = 0.7893 | 0.351 ± 0.004
308.15 K, 101 kPa, x2 = 0.9165 | 0.349 ± 0.004
318 K, 101 kPa, x1 = 0.5 | 0.3407 ± 0.0092
318.15 K, 101 kPa, x2 = 0.1025 | 0.42 ± 0.005
318.15 K, 101 kPa, x2 = 0.2002 | 0.396 ± 0.004
318.15 K, 101 kPa, x2 = 0.2919 | 0.371 ± 0.004
318.15 K, 101 kPa, x2 = 0.4003 | 0.352 ± 0.004
318.15 K, 101 kPa, x2 = 0.5192 | 0.338 ± 0.004
318.15 K, 101 kPa, x2 = 0.6209 | 0.33 ± 0.004
318.15 K, 101 kPa, x2 = 0.7084 | 0.325 ± 0.004
318.15 K, 101 kPa, x2 = 0.7893 | 0.319 ± 0.004
318.15 K, 101 kPa, x2 = 0.9165 | 0.318 ± 0.004
323.15 K, 101 kPa, x1 = 0.6 | 0.342 ± 0.0092

CCCCCCCCCCCCCC + CCCCCCCC
viscosity [mPa·s]
Details | x1 = 0.1504 | x1 = 0.3504 | x1 = 0.4999 | x1 = 0.6485 | x1 = 0.8475 | x2 = 0.367 | x2 = 0.635 | x2 = 0.839
293.15 K, 101.33 kPa | – | – | – | – | – | 1.501 ± 0.023 | 1.003 ± 0.015 | 0.753 ± 0.012
303.16 K, 101.3 kPa | 0.6303 ± 0.0065 | 0.8589 ± 0.0086 | 1.056 ± 0.01 | 1.276 ± 0.013 | 1.612 ± 0.016 | – | – | –
308.16 K, 101.3 kPa | 0.5925 ± 0.006 | 0.8026 ± 0.008 | 0.9789 ± 0.0097 | 1.176 ± 0.011 | 1.476 ± 0.014 | – | – | –

CCCCCO + CCCCCCCC
viscosity [mPa·s], 101 kPa
Details | 298.15 K | 318.15 K
x1 = 0.0618 | 0.537 ± 0.008 | 0.426 ± 0.006
x1 = 0.1297 | 0.57 ± 0.008 | 0.449 ± 0.007
x1 = 0.2063 | 0.617 ± 0.01 | 0.484 ± 0.008
x1 = 0.2744 | 0.671 ± 0.011 | 0.517 ± 0.009
x1 = 0.3509 | 0.749 ± 0.013 | 0.57 ± 0.01
x1 = 0.5159 | 1.007 ± 0.02 | 0.72 ± 0.014
x1 = 0.5831 | 1.166 ± 0.024 | 0.813 ± 0.017
x1 = 0.6979 | 1.536 ± 0.034 | 1.025 ± 0.023
x1 = 0.8127 | 2.072 ± 0.049 | 1.298 ± 0.031
x1 = 0.9043 | 2.694 ± 0.066 | 1.611 ± 0.04
x1 = 0.952 | 3.056 ± 0.077 | 1.814 ± 0.046

From the CheMixHub viscosity set
